In patent US20090124678A1, “Combined Use of Metconazole and Epoxiconazole for Reducing or Preventing the Contamination of Cereals With Mycotoxins” (priority 2005, published 2009):

How the values were obtained:
Fusarium sp. = assay: Fusarium ear infection of winter wheat under field conditions, determined visually; format: in vivo, Fusarium sp. on winter wheat cultivar "Ritmo"; conditions: winter wheat "Ritmo" inoculated with Fusarium sp. at GS 25-29, sprayed at GS 63, assessed three weeks after application, relative to untreated control, metconazole 45 g/ha, epoxyconazole 75 g/ha
Protocol: (§1) At growth stage GS 25-29 (tillering), outdoor winter wheat of the cultivar “Ritmo” was inoculated with rye grains infected with Fusarium sp. The active compounds were applied at growth stage GS 63 (beginning of flowering). Both metconazole and epoxyconazole were used as finished formulations (metconazole: trade name “Caramba”; epoxyconazole: trade name “Opus”; metconazole as SL=[…]; epoxyconazole as SC=suspensible concentrate). These formulations were diluted with water to the desired concentration, and the plants were treated by spraying with these diluted preparations. The active compounds were applied jointly as a tank mix. For comparison, the individual fungicides were also only employed on their own. Three weeks after application, the infection of the ears with Fusarium fungi was determined visually. The wheat grains were harvested and the DON content of the grains was determined after extraction and analysis by HPLC/MS. For comparative evaluation, the Fusarium infection and the DON value found for untreated wheat were defined as 100%. […] The expected efficacies for active compound combinations were determined using Colby's formula (S. R. Colby, Calculating Synergistic and Antagonistic Responses of Herbicide Combinations, Weeds, 15, pages 20-22, 1967) and compared with the observed efficacies.

deoxynivalenol (DON) = assay: DON content of harvested wheat grains after field treatment (extraction, HPLC/MS); format: in vivo, Fusarium sp. on winter wheat cultivar "Ritmo"; conditions: relative to untreated wheat (33.7 mg/kg DON), sprayed at GS 63, metconazole 45 g/ha, epoxyconazole 75 g/ha
Protocol: as §1

Compound: CC1(C)CCC(Cc2ccc(Cl)cc2)C1(O)Cn1cncn1 (stereo not shown) [metconazole]
- Effect on infection [%] (Fusarium sp.): 27%
- Reduction of DON content [%] (deoxynivalenol (DON)): 33%

Compound: Fc1ccc([C@]2(Cn3cncn3)O[C@H]2c2ccccc2Cl)cc1 (racemic) [epoxyconazole]
- Effect on infection [%] (Fusarium sp.): 5%
- Reduction of DON content [%] (deoxynivalenol (DON)): 0%
